Reference: patent US20240158446A1, “CYCLIC COMPOUND HAVING SELECTIVE INHIBITORY ACTION ON KRAS OVER HRAS AND NRAS” (CHUGAI SEIYAKU KABUSHIKI KAISHA, priority 2021, published 2024)
pKd: −log10 of the molar value. Where two headings read alike, the source gives them in different places. Where a SMILES comes first, the peptide text is derived from it. Bridges are numbered along the chain shown (N, C = ends). [ ]: non-standard residue; d: D form. The star is where a group is joined. hPhe(3,5-F2-4-CF3) = N[C@@H](CCc1cc(F)c(C(F)(F)F)c(F)c1)C(=O)O; hPhe(3-Cl-4-CF3) = N[C@@H](CCc1ccc(C(F)(F)F)c(Cl)c1)C(=O)O; NPrPhe(4-CF3) = CCCN[C@@H](Cc1ccc(C(F)(F)F)cc1)C(=O)O; Piperazinyl(4-(3-oxetanyl)) = C1OCC1N1CCN(*)CC1; NMeGly(cPent) = CN[C@H](C(=O)O)C1CCCC1; Pro(4,4-F2) = O=C(O)[C@@H]1CC(F)(F)CN1; NEtPhe = CCN[C@@H](Cc1ccccc1)C(=O)O; αMeCha = C[C@](N)(CC1CCCCC1)C(=O)O; Hyp = O=C(O)[C@@H]1C[C@@H](O)CN1; NMeD = CN[C@@H](CC(=O)O)C(=O)O; NMeL = CN[C@@H](CC(C)C)C(=O)O; Pip = O=C(O)[C@@H]1CCCCN1; Morpholide = C1CN(*)CCO1; Ac5c = NC1(C(=O)O)CCCC1; Aze = O=C(O)[C@@H]1CCN1; Ac4c = NC1(C(=O)O)CCC1; Sar = CNCC(=O)O

Columns and labels:
[1] = molecular target: GDP-bound HRAS wild-type protein (Homo sapiens, UniProt P01112); experiment: Binding to HRAS by surface plasmon resonance (SPR), Single Cycle Kinetics; conditions: SPR, GDP-bound HRAS wild-type protein vs GDP-bound KRAS wild-type protein
GDP-bound HRAS wild-type protein, sequence (P01112 whole entry): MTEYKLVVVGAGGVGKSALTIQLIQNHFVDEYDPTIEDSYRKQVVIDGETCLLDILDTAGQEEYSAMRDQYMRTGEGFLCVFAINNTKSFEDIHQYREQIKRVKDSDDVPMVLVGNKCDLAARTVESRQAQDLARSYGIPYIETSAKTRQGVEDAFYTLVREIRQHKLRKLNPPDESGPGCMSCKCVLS

[2] = molecular target: GDP-bound KRAS wild-type protein (Homo sapiens, UniProt P01116); experiment: Binding to KRAS by surface plasmon resonance (SPR), Single Cycle Kinetics; conditions: GDP-bound KRAS wild-type protein, 1:1 binding model, read-out: KRAS KD
GDP-bound KRAS wild-type protein, sequence (P01116 whole entry): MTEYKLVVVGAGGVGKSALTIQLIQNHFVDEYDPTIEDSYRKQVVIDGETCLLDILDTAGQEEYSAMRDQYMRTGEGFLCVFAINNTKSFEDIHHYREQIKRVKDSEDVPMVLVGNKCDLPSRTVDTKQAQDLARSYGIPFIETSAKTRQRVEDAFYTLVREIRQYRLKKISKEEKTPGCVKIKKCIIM

[3] = molecular target: GDP-bound NRAS wild-type protein (Homo sapiens, UniProt P01111); experiment: Binding to NRAS by surface plasmon resonance (SPR), Single Cycle Kinetics; conditions: SPR, GDP-bound NRAS wild-type protein vs GDP-bound KRAS wild-type protein
GDP-bound NRAS wild-type protein, sequence (P01111 whole entry): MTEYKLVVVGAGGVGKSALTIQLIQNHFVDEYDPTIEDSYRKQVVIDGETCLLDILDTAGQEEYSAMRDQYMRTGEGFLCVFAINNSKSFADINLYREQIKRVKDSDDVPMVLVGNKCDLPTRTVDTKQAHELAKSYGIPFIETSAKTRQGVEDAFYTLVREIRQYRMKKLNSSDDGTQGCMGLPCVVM

SMILES | pKd ([2]; SPR Single Cycle Kinetics) | pKd ([2]; SPR, Single Cycle Kinetics) | HRAS/KRAS (ratio of KD value with respect to HRAS to KD value with respect to KRAS) [1] | NRAS/KRAS (ratio of KD value with respect to NRAS to KD value with respect to KRAS) [3] | HRAS/KRAS (ratio of KD value for HRAS to KD value for KRAS) [1] | NRAS/KRAS (ratio of KD value for NRAS to KD value for KRAS) [3] | HRAS/KRAS (ratio of KD value for HRAS to KD value for KRAS) ([1]; KD ratio class) | NRAS/KRAS (ratio of KD value for NRAS to KD value for KRAS) ([3]; KD ratio class)
CC[C@H](C)[C@@H]1NC(=O)[C@H](CC(C)C)N(C)C(=O)C[C@@H](C(=O)N2CCOCC2)N(C)C(=O)[C@H](C2CCCC2)N(C)C(=O)C2(CCCC2)NC(=O)[C@@H]2CCCN2C(=O)[C@H](CCc2cc(F)c(C(F)(F)F)c(F)c2)NC(=O)CN(C)C(=O)[C@H](Cc2ccc(C(F)(F)F)cc2)N2CCCC[C@@H](C2=O)N(C)C(=O)[C@H](C)NC1=O [PP0543] | 9.00 |  | B (a compound having 3 or more and less than 10 is denoted as B) | B (a compound having 3 or more and less than 10 is denoted as B) |  |  |  | 
CC[C@H](C)[C@@H]1NC(=O)[C@H](CC(C)C)N(C)C(=O)C[C@@H](C(=O)N2CCOCC2)N(C)C(=O)[C@H](C2CCCC2)N(C)C(=O)C2(CCCC2)NC(=O)[C@@H]2CCCN2C(=O)[C@H](CCc2ccc(C(F)(F)F)c(Cl)c2)NC(=O)CN(C)C(=O)[C@H](Cc2ccccc2)N(CC)C(=O)CN(C)C(=O)CN(C)C1=O [PP0210] ([NMeL]I[Sar][Sar][NEtPhe][Sar][hPhe(3-Cl-4-CF3)]P[Ac5c][NMeGly(cPent)][NMeD]-Morpholide; lactam N-11) | 9.28 |  |  |  | C (A compound having a KD ratio of 0.1 or more and less than 3 is denoted as C) | C (A compound having a KD ratio of 0.1 or more and less than 3 is denoted as C) |  | 
CCCN1C(=O)CN(C)C(=O)[C@@H]2CCN2C(=O)[C@H]([C@@H](C)CC)NC(=O)[C@H](CC(C)C)N(C)C(=O)C[C@@H](C(=O)N2CCOCC2)N(C)C(=O)[C@H](C2CCCC2)N(C)C(=O)C2(CCCC2)NC(=O)[C@@H]2CCCCN2C(=O)[C@H](CCc2ccc(C(F)(F)F)c(Cl)c2)NC(=O)CN(C)C(=O)[C@@H]1Cc1ccc(C(F)(F)F)cc1 [PP0311] ([NMeL]I[Aze][Sar][NPrPhe(4-CF3)][Sar][hPhe(3-Cl-4-CF3)][Pip][Ac5c][NMeGly(cPent)][NMeD]-Morpholide; lactam N-11) | 8.48 |  |  |  | B (a compound having 3 or more and less than 10 is denoted as B) | B (a compound having 3 or more and less than 10 is denoted as B) |  | 
CCO[C@@H]1C[C@H]2C(=O)NC3(CCC3)C(=O)N(C)[C@@H](C(CC)CC)C(=O)N(C)[C@H](C)CC(=O)N(C)[C@@H](CC3CC3)C(=O)N[C@@H]([C@@H](C)CC)C(=O)N(C)CC(=O)N(C)[C@H]3C/C=C\CCN(C3=O)[C@@H](Cc3ccc(F)cc3)C(=O)N(C)CC(=O)N[C@@H](CCc3cc(F)c(C(F)(F)F)c(F)c3)C(=O)N2C1 [PP1521] |  | 8.59 |  |  |  |  | B (a compound having 3 or more and less than 10 is denoted as B) | A (a compound having 10 or more and less than 20 is denoted as A)
CCCN1C(=O)CN(C)C(=O)CN(C)C(=O)[C@H]([C@@H](C)CC)NC(=O)[C@H](CC(C)C)N(C)C(=O)C[C@@H](C(=O)N2CCOCC2)N(C)C(=O)[C@H](C2CCCC2)N(C)C(=O)[C@](C)(CC2CCCCC2)NC(=O)[C@@H]2CCCN2C(=O)[C@H](CCc2cc(F)c(C(F)(F)F)c(F)c2)NC(=O)CN(C)C(=O)[C@@H]1Cc1ccc(C(F)(F)F)cc1 [PP0760] ([NMeL]I[Sar][Sar][NPrPhe(4-CF3)][Sar][hPhe(3,5-F2-4-CF3)]P[αMeCha][NMeGly(cPent)][NMeD]-Morpholide; lactam N-11) | 7.80 |  | C (A compound having a KD ratio of 0.1 or more and less than 3 is denoted as C) | B (a compound having 3 or more and less than 10 is denoted as B) |  |  |  | 
CCO[C@@H]1C[C@H]2C(=O)NC3(CCC3)C(=O)N(C)[C@@H](C(CC)CC)C(=O)N(C)[C@H](C(=O)N3CCOCC3)CC(=O)N(C)[C@@H](CC3CC3)C(=O)N[C@@H]([C@@H](C)CC)C(=O)N(C)CC(=O)N(C)[C@H]3C/C=C\CCN(C3=O)[C@@H](Cc3ccc(F)cc3C)C(=O)N(C)CC(=O)N[C@@H](CCc3cc(F)c(C(F)(F)F)c(F)c3)C(=O)N2C1 [PP1526] |  | 8.89 |  |  |  |  | A (a compound having 10 or more and less than 20 is denoted as A) | A (a compound having 10 or more and less than 20 is denoted as A)

Continued by rising pKd ([2]; SPR Single Cycle Kinetics), values first:

pKd ([2]; SPR Single Cycle Kinetics) | pKd ([2]; SPR, Single Cycle Kinetics) | SMILES | HRAS/KRAS (ratio of KD value with respect to HRAS to KD value with respect to KRAS) [1] | NRAS/KRAS (ratio of KD value with respect to NRAS to KD value with respect to KRAS) [3] | HRAS/KRAS (ratio of KD value for HRAS to KD value for KRAS) [1] | NRAS/KRAS (ratio of KD value for NRAS to KD value for KRAS) [3] | HRAS/KRAS (ratio of KD value for HRAS to KD value for KRAS) ([1]; KD ratio class) | NRAS/KRAS (ratio of KD value for NRAS to KD value for KRAS) ([3]; KD ratio class)
9.33 |  | CCCN1C(=O)[C@@H]2CCN2C(=O)CN(C)C(=O)[C@H]([C@@H](C)CC)NC(=O)[C@H](CC(C)C)N(C)C(=O)C[C@@H](C(=O)N2CCOCC2)NC(=O)[C@H](C2CCCC2)N(C)C(=O)C2(CCCC2)NC(=O)[C@@H]2C[C@@H](OCC)CN2C(=O)[C@H](CCc2ccc(C(F)(F)F)c(Cl)c2)NC(=O)CN(C)C(=O)[C@@H]1Cc1ccc(C(F)(F)F)cc1 [PP0353] ([NMeL]I[Sar][Aze][NPrPhe(4-CF3)][Sar][hPhe(3-Cl-4-CF3)][Hyp](Et)[Ac5c][NMeGly(cPent)]D-Morpholide; lactam N-11) |  |  | B (a compound having 3 or more and less than 10 is denoted as B) | C (A compound having a KD ratio of 0.1 or more and less than 3 is denoted as C) |  | 
9.38 |  | CC[C@H](C)[C@@H]1NC(=O)[C@H](CC)N(C)C(=O)C[C@@H](C(=O)N(C)C)N(CC)C(=O)[C@H](C2CCCC2)N(C)C(=O)C2(CCC2)NC(=O)[C@@H]2C[C@H](N3CCC(F)(F)CC3)CN2C(=O)[C@H](CCc2cc(F)c(C(F)(F)F)c(F)c2)NC(=O)CN(C)C(=O)[C@H](Cc2ccc(C(F)(F)F)cc2)N2CCCC[C@@H](C2=O)N(C)C(=O)CN(C)C1=O [PP0659] | B (a compound having 3 or more and less than 10 is denoted as B) | B (a compound having 3 or more and less than 10 is denoted as B) |  |  |  | 
9.46 |  | CCCN1C(=O)CN(C)C(=O)CN(C)C(=O)[C@H]([C@@H](C)CC)NC(=O)[C@H](CC(C)C)N(C)C(=O)C[C@@H](C(=O)N2CCN(C3COC3)CC2)N(C)C(=O)[C@H](C2CCCC2)N(C)C(=O)C2(CCCC2)NC(=O)[C@@H]2CCCN2C(=O)[C@H](CCc2ccc(C(F)(F)F)c(Cl)c2)NC(=O)CN(C)C(=O)[C@@H]1Cc1ccc(C(F)(F)F)cc1 [PP0175] ([NMeL]I[Sar][Sar][NPrPhe(4-CF3)][Sar][hPhe(3-Cl-4-CF3)]P[Ac5c][NMeGly(cPent)][NMeD]-{Piperazinyl(4-(3-oxetanyl))}; lactam N-11) |  |  | B (a compound having 3 or more and less than 10 is denoted as B) | B (a compound having 3 or more and less than 10 is denoted as B) |  | 
10.03 |  | CCCN1C(=O)[C@@H]2CCN2C(=O)CN(C)C(=O)[C@H]([C@@H](C)CC)NC(=O)[C@H](CC(C)C)N(C)C(=O)C[C@@H](C(=O)N2CCOCC2)N(C)C(=O)[C@H](C2CCCC2)N(C)C(=O)C2(CCCC2)NC(=O)[C@@H]2CC(F)(F)CN2C(=O)[C@H](CCc2ccc(C(F)(F)F)c(Cl)c2)NC(=O)CN(C)C(=O)[C@@H]1Cc1ccc(C(F)(F)F)cc1 [PP0408] ([NMeL]I[Sar][Aze][NPrPhe(4-CF3)][Sar][hPhe(3-Cl-4-CF3)][Pro(4,4-F2)][Ac5c][NMeGly(cPent)][NMeD]-Morpholide; lactam N-11) |  |  | B (a compound having 3 or more and less than 10 is denoted as B) | C (A compound having a KD ratio of 0.1 or more and less than 3 is denoted as C) |  | 
10.14 |  | CCCN1C(=O)[C@@H]2CCN2C(=O)CN(C)C(=O)[C@H]([C@@H](C)CC)NC(=O)[C@H](CC(C)C)N(C)C(=O)C[C@@H](C(=O)N(C)C)N(C)C(=O)[C@H](C2CCCC2)N(C)C(=O)C2(CCC2)NC(=O)[C@@H]2CCCN2C(=O)[C@H](CCc2ccc(C(F)(F)F)c(Cl)c2)NC(=O)CN(C)C(=O)[C@@H]1Cc1ccc(C(F)(F)F)cc1 [PP0441] ([NMeL]I[Sar][Aze][NPrPhe(4-CF3)][Sar][hPhe(3-Cl-4-CF3)]P[Ac4c][NMeGly(cPent)][NMeD]-NMe2; lactam N-11) | C (A compound having a KD ratio of 0.1 or more and less than 3 is denoted as C) | C (A compound having a KD ratio of 0.1 or more and less than 3 is denoted as C) |  |  |  | 
10.44 |  | CCO[C@@H]1C[C@H]2C(=O)NC3(CCCC3)C(=O)N(C)[C@@H](C3CCCC3)C(=O)N(C)[C@H](C(=O)N3CCOCC3)CC(=O)N(C)[C@@H](CC(C)C)C(=O)N[C@@H]([C@@H](C)CC)C(=O)N(C)CC(=O)N(C)[C@H]3CCCCN(C3=O)[C@@H](Cc3ccc(C(F)(F)F)cc3)C(=O)N(C)CC(=O)N[C@@H](CCc3cc(F)c(C(F)(F)F)c(F)c3)C(=O)N2C1 [PP0554] | B (a compound having 3 or more and less than 10 is denoted as B) | B (a compound having 3 or more and less than 10 is denoted as B) |  |  |  | 
10.77 |  | CCO[C@@H]1C[C@H]2C(=O)NC3(CCCC3)C(=O)N(C)[C@@H](C3CCCC3)C(=O)N(C)[C@H](C(=O)N(C)C)CC(=O)N(C)[C@@H](CC(C)C)C(=O)N[C@@H]([C@@H](C)CC)C(=O)N(C)CC(=O)N(C)[C@H]3CCCCN(C3=O)[C@@H](Cc3ccc(C(F)(F)F)cc3)C(=O)N(C)CC(=O)N[C@@H](CCc3cc(F)c(C(F)(F)F)c(F)c3)C(=O)N2C1 [PP0579] | B (a compound having 3 or more and less than 10 is denoted as B) | C (A compound having a KD ratio of 0.1 or more and less than 3 is denoted as C) |  |  |  | 
